Measurements as given in patent US20210379035A1, “Methods Of Treating Fabry Patients Having Renal Impairment” (Amicus Therapeutics, Inc., priority 2017, published 2021).
Where two headings read alike, the source gives them in different places.

Legend:
[1] = system: GL-3 inclusions per kidney interstitial capillary; test: ERT-naïve study: kidney interstitial capillary GL-3 inclusions; type: in vivo, human
Procedure: In the ERT-naïve study, the primary efficacy parameter was GL-3 inclusions per kidney interstitial capillary. Renal function was also evaluated by mGFRiohexol, eGFRCKD-EPI and eGFRMDRD.

Fabry patients [2] = test: ERT-naïve study: LVMi; type: in vivo, human
Procedure: One study was a 24-month trial, including a 6-month double-blind, placebo-controlled period, in 67 ERT-naïve patients. The other study was an active-controlled, 18-month trial in 57 ERT-experienced patients with a 12-month open-label extension (OLE). Both the ERT-naïve and ERT-experienced studies included Fabry patients having an eGFR of ≥30 mL/min/1.73 m^2.
A further analysis of data from these studies examined annualized change in eGFRCKD-EPI, LVMi, WBC α-Gal A activity and plasma lyso-Gb3 levels based on renal function at baseline. The results for each renal subgroup are shown in Table 9 below, with the ERT-naïve study subgroups based on eGFRMDRD and the ERT-experienced study subgroups based on mGFRiohexol.

Fabry patients [3] = test: ERT-experienced study: renal function (eGFR, mGFR); type: in vivo, human; conditions: for Annualized Change in eGFRCKD-EPI, mean ± SE: ERT-Experienced, Migalastat 0-18 months; for mean annualized rate of change of eGFRCKD-EPI / mean annualized rate of change mGFRiohexol / mean±SE annualized rate of change of eGFRCKD-EPI: ERT-experienced study; for mean annualized rate of change of eGFRCKD-EPI: baseline to 18 months (FIG. 12A); for mean annualized rate of change mGFRiohexol: baseline to 18 months (FIG. 12B); for mean±SE annualized rate of change of eGFRCKD-EPI: baseline to 18 months (FIG. 13)
Procedure: One study was a 24-month trial, including a 6-month double-blind, placebo-controlled period, in 67 ERT-naïve patients. The other study was an active-controlled, 18-month trial in 57 ERT-experienced patients with a 12-month open-label extension (OLE). Both the ERT-naïve and ERT-experienced studies included Fabry patients having an eGFR of ≥30 mL/min/1.73 m^2. […] Annualized change in eGFR using the Modification of Diet in Renal Disease ([…]) was also calculated. […] Although the number of patients with moderate renal impairment included in this analysis is two (compared to three for the ERT-naïve study), the data supports the efficacy of migalastat when administered to patients with some form of renal impairment. A further analysis of data from these studies examined annualized change in […], WBC α-Gal A activity and plasma lyso-Gb3 levels based on renal function at baseline. The results for each renal subgroup are shown in Table 9 below, with the ERT-naïve study subgroups based on […] and the ERT-experienced study subgroups based on mGFRiohexol.

[4] = Plasma and urine PK in healthy volunteers and Fabry patients (single and multiple ascending dose studies); type: in vivo, human; conditions: for Mean percent of the dose recovered in urine: SAD study
α-Gal A = target: T1, α-Gal A (Homo sapiens, UniProt P06280); conditions: selective and reversible binding; cited from earlier work
T1 sequence (P06280 32-429): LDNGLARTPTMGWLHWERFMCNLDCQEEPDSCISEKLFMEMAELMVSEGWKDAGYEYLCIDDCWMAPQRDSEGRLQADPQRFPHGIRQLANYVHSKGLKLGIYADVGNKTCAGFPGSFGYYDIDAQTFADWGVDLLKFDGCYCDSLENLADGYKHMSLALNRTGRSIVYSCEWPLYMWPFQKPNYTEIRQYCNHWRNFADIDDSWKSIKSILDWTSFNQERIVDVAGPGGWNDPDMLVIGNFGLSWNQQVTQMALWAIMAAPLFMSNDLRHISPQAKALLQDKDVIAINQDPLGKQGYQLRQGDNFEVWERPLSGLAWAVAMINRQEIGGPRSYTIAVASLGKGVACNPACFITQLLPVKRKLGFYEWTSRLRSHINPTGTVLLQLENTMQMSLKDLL

[5] = Single-dose renal impairment PK and safety study in non-Fabry subjects (Example 1); type: in vivo, human
Procedure: The eGFR was estimated by the Cockcroft-Gault equation per the FDA Guidance for renal impairment studies.
Volunteers were enrolled into two cohorts stratified for renal function calculated using the Cockcroft-Gault equation for creatinine clearance (CLCR). Subjects were assigned to groups based on an estimated CLCR at screening as calculated using the Cockcroft-Gault equation.
Subjects were grouped according to degree of renal dysfunction: mild (CLCR≥60 and <90 mL/min), moderate (CLCR≥30 and <60 mL/min), or severe (CLCR≥15 and <30 mL/min)

[6] = mild or moderate renal impairment
[7] = human, plasma, oral, 150 mg, single 150 mg migalastat HCl, non-Fabry, Mild (N = 8)
[8] = human, plasma, oral, 150 mg, single 150 mg migalastat HCl, non-Fabry, Moderate (N = 8)
[9] = human, plasma, oral, 150 mg, single 150 mg migalastat HCl, non-Fabry, Normal (N = 8)
[10] = human, plasma, oral, 150 mg, single 150 mg migalastat HCl, non-Fabry, Severe (N = 8)

With `OC[C@H]1NC[C@H](O)[C@@H](O)[C@H]1O` [migalastat, (2R,3S,4R,5S)-2-(hydroxymethyl) piperdine-3,4,5-triol] the “change in kidney interstitial capillary GL-3 inclusions” value ([1]; baseline to month 6, eGFR<60 mL/min/1.73 m^2, n=3) was −0.39, the “change in kidney interstitial capillary GL-3 inclusions” value ([1]; baseline to month 6, eGFR≥60 mL/min/1.73 m^2, n=22) was −0.30 and the “LVMi, change from baseline, mean ± SE” value (Fabry patients [2]; Migalastat→Migalastat 0-24 months, renal subgroup 30 to < 60) was −5.5 ± 10.0 gm^2. For the same molecule, the “LVMi, change from baseline, mean ± SE” value (Fabry patients [2]; Migalastat→Migalastat 0-24 months, renal subgroup ≥60) was −9.2 ± 5.8 gm^2, the “LVMi, change from baseline, mean ± SE” value (Fabry patients [2]; Placebo→Migalastat 6-24 months, renal subgroup 30 to < 60) was −21.0 ± 14.1 gm^2 and the “LVMi, change from baseline, mean ± SE” value (Fabry patients [2]; Placebo→Migalastat 6-24 months, renal subgroup ≥60) was −3.2 ± 5.6 gm^2. The “Annualized Change in eGFRCKD-EPI, mean ± SE” value (Fabry patients [3]; renal subgroup 30 to < 60) was −4.2 ± 2.7 mL/min/1.73 m^2, the “Annualized Change in eGFRCKD-EPI, mean ± SE” value (Fabry patients [3]; renal subgroup ≥60) was −0.4 ± 0.8 mL/min/1.73 m^2 and the “mean annualized rate of change of eGFRCKD-EPI” value (Fabry patients [3]; [6]) was −3.33 mL/min/1.73 m^2/year. For the same molecule, the “mean annualized rate of change of eGFRCKD-EPI” value (Fabry patients [3]; normal renal function) was −0.4 mL/min/1.73 m^2/year, the “mean annualized rate of change mGFRiohexol” value (Fabry patients [3]; [6]) was −3.51 mL/min/1.73 m^2/year and the “mean annualized rate of change mGFRiohexol” value (Fabry patients [3]; normal renal function) was −4.35 mL/min/1.73 m^2/year. For the same molecule, the “mean±SE annualized rate of change of eGFRCKD-EPI” value (Fabry patients [3]; mild renal impairment) was −0.2±1.25 mL/min/1.73 m^2/year, the “mean±SE annualized rate of change of eGFRCKD-EPI” value (Fabry patients [3]; moderate renal impairment) was −4.5±2.68 mL/min/1.73 m^2/year and the “mean±SE annualized rate of change of eGFRCKD-EPI” value (Fabry patients [3]; normal renal function) was −2.0±0.57 mL/min/1.73 m^2/year. The “Mean percent of the dose recovered in urine” value (“Mean percent” below) ([4]; 25 mg) was 32.2%, the “Mean percent” value ([4]; 75 mg) was 43.0% and the “Mean percent” value ([4]; 225 mg) was 49.3%. The “Mean percent” value ([4]; 675 mg) was 48.5%, the excretion ([4]; human, in vivo) was “primarily excreted unchanged in urine” and the half-life ([4]; human, plasma, single-dose studies, oral, read-out: mean elimination half-lives (t1/2)) was 182 to 287 min. The “accumulation of plasma migalastat” value ([4]; multiple ascending dose studies) was “only minimal accumulation”, the “increase of mean Cmax and AUC0-t with dose” value ([4]; oral doses from 75 mg to 1250 mg) was “dose-proportional manner” and the “time to maximum concentrations” value ([4]; single-dose studies, oral, range 1 to 6 hrs) was “approximately 3 hours”. The “binding to the active site of wild-type α-Gal A and specific mutant forms of α-Gal A” value (α-Gal A) was “high affinity”, the concentration at 3 h ([5]; human, plasma, oral, 150 mg, Comparison to Example 1 Moderate Impairment (migalastat concentration), non-Fabry, moderate impairment, 3 Hrs Post) was 1870 ng/mL and the concentration at 24 h ([5]; human, plasma, oral, 150 mg, Comparison to Example 1 Moderate Impairment (migalastat concentration), non-Fabry, moderate impairment, 24 Hrs Post) was 239 ng/mL. For the same molecule, the concentration at 48 h ([5]; human, plasma, oral, 150 mg, Comparison to Example 1 Moderate Impairment (migalastat concentration), non-Fabry, moderate impairment, 48 Hrs Post) was 64.5 ng/mL, the concentration at 2 h ([5]; human, plasma, oral, 150 mg, Comparison to Example 1 Severe Impairment (migalastat concentration), non-Fabry, severe impairment, 2 h) was 1550 ng/mL and the concentration at 24 h ([5]; human, plasma, oral, 150 mg, Comparison to Example 1 Severe Impairment (migalastat concentration), non-Fabry, severe impairment, 24 h) was 770 ng/mL. For the same molecule, the concentration at 48 h ([5]; human, plasma, oral, 150 mg, Comparison to Example 1 Severe Impairment (migalastat concentration), non-Fabry, severe impairment, 48 h) was 334 ng/mL, the AUC(0-inf) [5, 7] was 14500 ng·h/mL and the AUC(0-t) [5, 7] was 14400 ng·h/mL. It also gave a Cmax [5, 7] of 2190 ng/mL, a concentration at 48 h ([5]; human, plasma, oral, 150 mg, single 150 mg migalastat HCl, non-Fabry, Mild (N = 8), read-out: C48) of 9.34 ng/mL and a half-life ([5]; human, plasma, oral, 150 mg, single 150 mg migalastat HCl, non-Fabry, Mild (N = 8), read-out: t1/2 (converted)) of 460 min. For the same molecule, the AUC(0-inf) [5, 8] was 22500 ng·h/mL, the AUC(0-t) [5, 8] was 22100 ng·h/mL and the Cmax [5, 8] was 1870 ng/mL. For the same molecule, the Tmax [5, 8] was 3 h, the concentration at 48 h ([5]; human, plasma, oral, 150 mg, single 150 mg migalastat HCl, non-Fabry, Moderate (N = 8), read-out: C48) was 64.5 ng/mL and the half-life ([5]; human, plasma, oral, 150 mg, single 150 mg migalastat HCl, non-Fabry, Moderate (N = 8), read-out: t1/2 (converted)) was 1330 min. For the same molecule, the AUC(0-inf) [5, 9] was 12400 ng·h/mL, the AUC(0-t) [5, 9] was 12300 ng·h/mL and the Cmax [5, 9] was 2100 ng/mL. The concentration at 48 h ([5]; human, plasma, oral, 150 mg, single 150 mg migalastat HCl, non-Fabry, Normal (N = 8), read-out: C48) was 5.7 ng/mL, the half-life ([5]; human, plasma, oral, 150 mg, single 150 mg migalastat HCl, non-Fabry, Normal (N = 8), read-out: t1/2 (converted)) was 385 min and the AUC(0-inf) [5, 10] was 56200 ng·h/mL. For the same molecule, the AUC(0-t) [5, 10] was 53100 ng·h/mL, the Cmax [5, 10] was 2080 ng/mL and the Tmax [5, 10] was 4.27 h. The concentration at 48 h ([5]; human, plasma, oral, 150 mg, single 150 mg migalastat HCl, non-Fabry, Severe (N = 8), read-out: C48) was 334 ng/mL, the half-life ([5]; human, plasma, oral, 150 mg, single 150 mg migalastat HCl, non-Fabry, Severe (N = 8), read-out: t1/2 (converted)) was 1940 min and the half-life ([5]; human, plasma, po, 150 mg, single oral 150 mg migalastat HCl, mild renal impairment, read-out: t1/2 in plasma, arithmetic mean [min, max] (converted)) was 462 min. It also gave a half-life ([5]; human, plasma, po, 150 mg, single oral 150 mg migalastat HCl, moderate renal impairment, read-out: t1/2 in plasma, arithmetic mean [min, max] (converted)) of 1330 min, a half-life ([5]; human, plasma, po, 150 mg, single oral 150 mg migalastat HCl, normal renal function, read-out: t1/2 in plasma, arithmetic mean [min, max] (converted)) of 384 min and a half-life ([5]; human, plasma, po, 150 mg, single oral 150 mg migalastat HCl, severe renal impairment, read-out: t1/2 in plasma, arithmetic mean [min, max] (converted)) of 1940 min. For the same molecule, the Plasma migalastat concentration ([5]; non-Fabry, moderate impairment, Pre-dose (0 h), same value as 48 h) was 64.5 ng/mL, the CL/F ([5]; single 150 mg migalastat HCl, non-Fabry, Mild (N = 8)) was 10.3 L/h and the CL/F ([5]; single 150 mg migalastat HCl, non-Fabry, Moderate (N = 8)) was 6.68 L/h. The CL/F ([5]; single 150 mg migalastat HCl, non-Fabry, Normal (N = 8)) was 12.1 L/h, the CL/F ([5]; single 150 mg migalastat HCl, non-Fabry, Severe (N = 8)) was 2.67 L/h and the “Incidence of adverse events” value ([5]; single 150 mg migalastat HCl, all renal function groups) was “comparable across all renal function groups”. The “increase of mean plasma migalastat AUC0-∞ compared to healthy control subjects” value (from here on “increase … to healthy control subjects”) ([5]; single oral 150 mg migalastat HCl, mild renal impairment) was 1.2 fold, the “increase … to healthy control subjects” value ([5]; single oral 150 mg migalastat HCl, moderate renal impairment) was 1.8 fold and the “increase … to healthy control subjects” value ([5]; single oral 150 mg migalastat HCl, severe renal impairment) was 4.5 fold.
